Assay results taken from patent US11660280B2, “Treatment of drug resistant gliomas” (OKLAHOMA MEDICAL RESEARCH FOUNDATION, priority 2017, dated 2023).

Columns and labels:
F98 tumors = assay: RT-PCR of RNA isolated from F98 untreated and OKN-007-treated tumors; type: in vivo, rat; conditions: OKN-007-treated vs untreated F98 tumors
Procedure: (§1) Mice and Treatments. Animal studies were conducted in accordance to the OMRF IACUC (Institutional Animal Care and Use Committee) policies, which follow NIH guidelines. For the F98 rat glioma cell implantation model, F98 cells (10^5 in 10-μ1 volume) were intracerebrally implanted with a stereotaxic device (2 mm lateral and 2 mm anterior to the bregma, and at a 3 mm depth) in a total of 15 Fischer 344 rats (male 200-250 gm). The animals were divided into two groups once tumors reached 10-20 mm^3 in volume (as determined by MRI): OKN-007 treated (n=8) and untreated (UT) (n=7) groups. Rats were treated until tumors reached 200-250 mm^3 in volume or for a total of 4-6 weeks. For the G55 GBM cell implantation model, two-month-old male nude mice (Hsd:Athymic Nude-Foxnlnu mice; Harlan Inc., Indianapolis, IN) were implanted intracerebrally with human G55 xenograft cells (1×10^6) per mL suspended in 4 μL in cell culture media of 1% agarose solution. Once tumors reached 10-15 mm^3 (determined via MRI), mice were either treated daily with OKN-007 in the drinking water (150 mg/kg; 0.20% w/v for a 20 g mouse), or every 3 days with TMZ (30 mg/kg). OKN-007 was dissolved in water and made fresh every 2 days. Water bottles were weighed, and the amount of OKN-007 consumed per mouse was determined. […] The average intake of OKN-007 was approximately 140-150 mg/kg/day/mouse. TMZ was dissolved in 5% DMSO and 5% solutol-15 in sterile saline and administered via gavage. Mice were treated until the tumors reached 100-150 mm^3 or for a total of 4-6 weeks. All groups were stratified to ensure that tumor sizes were similar before initiation of treatment.
(§2) RNA isolation and preparation. For the rat F98 glioma study, all rats were euthanized after the last MRI examination. The brain of each animal was removed, and snap frozen in liquid nitrogen, before storage in a −80° C. freezer. Total RNA from all tumor tissues from all treatment groups was purified with an RNeasy Mini Kit (Qiagen), and quantified by spectrophotometry (Nanodrop). cDNA was synthesized using SuperScript IV Reverse Transcriptase Kit (Invitrogen).

MGMT = assay: RT-PCR gene-fold changes in human GBM cells; type: cell-based
Procedure: (§3) Quantification of mRNA by real-time quantitative RT-PCR for HIF-1a, MPG and MGMT. Total RNA from all cell lines with all treatments was purified with an RNeasy Mini Kit (Qiagen), and quantified by spectrophotometry (Nanodrop). cDNA was synthesized using SuperScript IV Reverse Transcriptase Kit (Invitrogen).
(§4) Target gene mRNA was amplified and measured by Bio-Rad CFX96™ Real Time System. Gene expression was determined using the SYBR Select Master Mix (Applied Biosystems). […] The reaction is characterized by the point during cycling when amplification of PCR products is first detected, rather than the amount of PCR product accumulated after a fixed number of cycles. The higher the starting quantity of the template, the earlier a significant increase in fluorescence is observed. The threshold cycle is defined as the fractional cycle number at which fluorescence passes a fixed threshold above the baseline. Fluorescence data were converted into cycle threshold measurements exported to Microsoft Excel. Glyceraldehyde-3-phosphatase dehydrogenase (GAPDH) mRNA expression levels were used as the quantitative internal control. For precise quantification, the mRNA expression level of each sample was normalized using the expression of the GAPDH gene.
(§5) All primers were synthesized by Integrated DNA Technologies. The primers used were: […]
(§6) were used to amplify 603-bp transcripts of MPG [9].

MPG = assay: RT-PCR gene-fold changes in human GBM cells; type: cell-based
Procedure: as §3, §4, §5, §6

rat F98 gliomas = assay: Microarray analysis of OKN-007-treated vs untreated rat F98 gliomas; type: in vivo
Procedure: as §1, §2
Microarray analysis. The Illumina TotalPrepTM RNA Amplification Kit was used for labeling cRNA (Ambion, Austin, Tex.), as previously described (Griffins et al., 2009). Four×four treated/untreated samples were profiled using Affymetrix RaGene-1_0-st-v1 microarrays. Exon-level-summarized measures were quantile-normalized and tested for differential expression using Significance Analysis of Microarrays (SAM, [PMID: 11309499]) at a false discovery rate (FDR) <40% and […]. Functional enrichment analysis was performed using Ingenuity Pathways Analysis (IPA) (Ingenuity® Systems, world-wide-web at ingenuity.com).

[1] = microarray, F98 gliomas, OKN treatment vs UT

## CC(C)(C)[N+]([O-])=Cc1ccc(S(=O)(=O)O)cc1S(=O)(=O)O [OKN-007, 2,4-disulfonyl phenyl tert-butyl nitrone]
F98 tumors; Down-regulated
  RT-PCR fold change in gene expression ADAMTS1: 3.57 fold
  RT-PCR fold change in gene expression CD44: 3.03 fold
  RT-PCR fold change in gene expression CDH3: 3.70 fold
  RT-PCR fold change in gene expression COL1A1: 2.27 fold
  RT-PCR fold change in gene expression COL2A1: 2.33 fold
  RT-PCR fold change in gene expression COL3A1: 3.13 fold
  RT-PCR fold change in gene expression COL4A1: 2.94 fold
  RT-PCR fold change in gene expression COL4A2: 2.63 fold
  RT-PCR fold change in gene expression COL5A1: 3.33 fold
  RT-PCR fold change in gene expression COL6A1: 2.94 fold
  RT-PCR fold change in gene expression COL8A1: 2.33 fold
  RT-PCR fold change in gene expression CTGF: 2.63 fold
  RT-PCR fold change in gene expression ECM1: 2.86 fold
  RT-PCR fold change in gene expression EMILIN1: 2.27 fold
  RT-PCR fold change in gene expression FN1: 2.63 fold
  RT-PCR fold change in gene expression ITAD: 2.38 fold
  RT-PCR fold change in gene expression ITGA2: 3.7 fold
  RT-PCR fold change in gene expression ITGB3: 2.13 fold
  RT-PCR fold change in gene expression ITGB4: 3.70 fold
  RT-PCR fold change in gene expression LAMC1: 2.33 fold
  RT-PCR fold change in gene expression MMP1 A: 4.17 fold
  RT-PCR fold change in gene expression MMP2: 2.86 fold
  RT-PCR fold change in gene expression MMP3: 3.85 fold
  RT-PCR fold change in gene expression MMP7: 2.86 fold
  RT-PCR fold change in gene expression MMP8: 3.85 fold
  RT-PCR fold change in gene expression MMP9: 7.14 fold
  RT-PCR fold change in gene expression MMP12: 16.67 fold
  RT-PCR fold change in gene expression MMP13: 50.00 fold
  RT-PCR fold change in gene expression MMP14: 2.86 fold
  RT-PCR fold change in gene expression POSTN: 33.33 fold
  RT-PCR fold change in gene expression RGDC: 3.45 fold
  RT-PCR fold change in gene expression SELE: 2.86 fold
  RT-PCR fold change in gene expression SELL: 2.13 fold
  RT-PCR fold change in gene expression SELP: 2.13 fold
  RT-PCR fold change in gene expression SPP1: 8.33 fold
  RT-PCR fold change in gene expression TGFBI: 2.22 fold
  RT-PCR fold change in gene expression THBS2: 3.7 fold
  RT-PCR fold change in gene expression TIMP1: 3.45 fold
F98 tumors; Up-regulated
  RT-PCR fold change in gene expression CDH4: 4.06 fold
  RT-PCR fold change in gene expression CNTN1: 15.03 fold
  RT-PCR fold change in gene expression HAPLN1: 3.1 fold
  RT-PCR fold change in gene expression MMP16: 4.72 fold
  RT-PCR fold change in gene expression NCAM2: 11.63 fold
  RT-PCR fold change in gene expression SGCE: 8.06 fold
  RT-PCR fold change in gene expression SPOC1: 11.08 fold
  RT-PCR fold change in gene expression SYT1: 19.03 fold
  RT-PCR fold change in gene expression VTN: 3.03 fold
MGMT; LN18 cells (TMZ-resistant), UT 1.06
  RT-PCR gene-fold change MGMT: 0.42 fold
MGMT; T98 cells (TMZ-resistant), UT 1.00
  RT-PCR gene-fold change MGMT: 0.54 fold
MGMT; U251 cells (TMZ-sensitive), UT 1.00
  RT-PCR gene-fold change MGMT: 1.22 fold
MPG; G55 cells (TMZ-resistant), UT 1.06
  RT-PCR gene-fold change MPG: 4.52 fold
MPG; LN18 cells (TMZ-resistant), UT 1.00
  RT-PCR gene-fold change MPG: 0.60 fold
MPG; LN229 cells (TMZ-sensitive), UT 1.10
  RT-PCR gene-fold change MPG: 0.62 fold
MPG; T98 cells (TMZ-resistant), UT 1.10
  RT-PCR gene-fold change MPG: 0.62 fold
MPG; U138 cells (TMZ-resistant), UT 1.13
  RT-PCR gene-fold change MPG: 11.10 fold
MPG; U251 cells (TMZ-sensitive), UT 1.10
  RT-PCR gene-fold change MPG: 0.81 fold
Rat F98 gliomas; Upstream Regulator Analysis, IPA, rat F98 treated gliomas vs untreated tumors
  number of down-regulated genes with TGFβ1 as master (upstream) regulator: 57 genes
Rat F98 gliomas; microarray, F98 gliomas treated with OKN-007 vs UT
  TGFβ1 downregulation: ~2 fold
Rat F98 gliomas; [1]
  number of genes upregulated: 3 genes
  number of genes with at least one exon significantly downregulated: 384 genes
Rat F98 gliomas; microarray, rat F98 glioma model, treated vs untreated tumors
  decrease in gene expression for LBP: > 2 fold
